Patent publication US4619943A, “Neolignans of Saururus cernuus L and analogues thereof” (priority 1984, dated 1986)
Values after ≈ are worked out from the molar mass of the structure shown. Values joined by “and” are separate entries in the source; they are usually repeats but may differ in a detail not shown here. Identical values can stand only once.

Assays:
Type in all cases: in vivo
Pimephales promelas = assay: Acute toxicity to fish; details: for % Mortality, Avg / % Mortality, single replicates (1 to 6): 2 hours
Method: Many compounds having insecticidal activity also show toxicity to fish. For example, rotenoids, pyrethrins, and DDT have significant toxicity to fish. For this reason, fish have been used frequently to indicate potential insecticidal activity. The present compounds were tested for acute toxicity to fish by the method described in "Methods For Acute Toxicity Tests With Fish, Macro-Invertebrates and Amphibians", EPA 660/3-75-009, Committee on Methods for Toxicity Tests With Aquatic Organisms, Environmental Protection Agency, Corvallis, OR, 1975.
The fish, commonly known as Missouri minnows or fat heads (Pimephales promelas, family, cyprinidae) were purchased from a local hatchery and equilibrated to the new surroundings for 24 hours. They were kept in deionized water, previously adjusted to pH 6.5 with phosphate buffer at 23° C. Sufficient oxygen was provided, and the fish were deprived of food during the test period.
Groups of six fish were placed in containers with different concentrations of the test compound. The percent mortality was recorded every 30 minutes. The LC 50 values (mg/L) and 95% confidence limits were determined from the percent mortality data after 2 hours of exposure from 6 separate replicates using the method of Lichfield and Wiloxon [(J. Pharmacology and Exp. Therepeutics, 96, 99-113 (1949))].

[1] = test system: cabbage looper (Trichoplusia ni [Hubner]); assay: Insecticidal activity against cabbage looper; details: both application rates, 1000 and 500 ppm, 14 days
Method: (§1) The present compounds were tested for insecticidal activity against cabbage looper (Trichoplusia ni [Hubner]), and southern armyworm (Spodoptera eridania) at application rates of 1000 and 500 ppm. The tests were conducted in petri dishes containing a solid food source in which the test compounds had been incorporated. The petri dishes containing the treated food source were infested with second instar larvae of southern armyworms or cabbage loopers. Ten larvae per replicate and two replicates per test rate were used. Mortality data were taken 14 days after infestation.

[2] = test system: southern armyworm (Spodoptera eridania); assay: Insecticidal activity against southern armyworm; details: both application rates, 1000 and 500 ppm, 14 days
Method: as §1

[3] = test system: mosquito larvae (Aedes aegypti); assay: Mosquito larvae test; details: 24 hours
Method: Similarly, in a test using mosquito larvae (Aedes aegypti) as the insect test species, SC-7 gave 15% mortality and SC-8 gave 93% mortality at an application rate of 100 ppm. In this test, one ml of a solution of 1000 ppm of the test compound in 10% acetone - 90% water was added to 9 ml of water in a culture tube. Ten mosquito larvae were added, and mortality readings were taken 24 hours later.

mice = assay: Neuroleptic / CNS-depressant activity in experimental animals (general statements)
[4] = Antiamphetamine activity (method of Weissman et al., mice instead of rats); details: mice
Method: Neuroleptic drugs are said to bind to postsynaptic dopamine receptors in the brain, thereby blocking dopaminergic transmission. […] Based on this, an assay for possible neuroleptic activity was developed and is commonly used. […] 151, 339 (1966)), except that mice were used instead of rats. A comparison under the same conditions was also made of the antiamphetamine activity of a standard neuroleptic drug, haloperidol, which gave an ED50 value of 0.5 mg/Kg (Table 2).

Structure (SMILES): COc1ccc(C(O)C(C)Oc2ccc([C@@H]3O[C@@H](c4ccc(OC(C)C(O)c5ccc6c(c5)OCO6)c(OC)c4)[C@@H](C)[C@@H]3C)cc2OC)cc1OC (stereo partly drawn) [SC-7, 2α-[3-methoxy-4-{threo-3-hydroxy-3-(3,4-dimethoxyphenyl)}isopropoxyphenyl]-5β-[3-methoxy-4-{threo-3-hydroxy-3-(3,4-methylenedioxyphenyl)}isopropoxyphenyl]-3α,4β-dimethyltetrahydrofuran]
- % Mortality, Avg (Pimephales promelas; 0.03 mg/L): 6%
- % Mortality, single replicates (1 to 6) (Pimephales promelas; 0.03 mg/L, 120 min): 0% (4×) and 17% (2×)
- % Mortality, Avg (Pimephales promelas; 0.06 mg/L): 38%
- % Mortality, single replicates (1 to 6) (Pimephales promelas; 0.06 mg/L, 120 min): 33% (4×) and 17% (2×)
- % Mortality, Avg (Pimephales promelas; 0.09 mg/L): 41%
- % Mortality, single replicates (1 to 6) (Pimephales promelas; 0.09 mg/L, 120 min): 50% and 33% (5×)
- % Mortality, Avg (Pimephales promelas; 0.13 mg/L): 58%
- % Mortality, single replicates (1 to 6) (Pimephales promelas; 0.13 mg/L, 120 min): 83% and 67% and 50% (4×)
- % Mortality, Avg (Pimephales promelas; 0.25 mg/L): 86%
- % Mortality, single replicates (1 to 6) (Pimephales promelas; 0.25 mg/L, 120 min): 100% (2×) and 83% (3×) and 67%
- % Mortality, Avg (Pimephales promelas; 0.5 mg/L): 100%
- % Mortality, single replicates (1 to 6) (Pimephales promelas; 0.5 mg/L): 100%
- LC50 (Pimephales promelas; 2 hours of exposure, pH 6.5, 23° C): 0.115 µg/mL (≈ 0.16 µM)
- insecticidal activity, cabbage looper [1]: essentially inactive
- insecticidal activity, southern armyworm [2]: essentially inactive
- mortality at 100 ppm [3]: 15%
- CNS-depressant activity (mice; experimental animals / mice): activity similar to SC-8
- neuroleptic activity (mice; mouse, in vivo): neuroleptically active

Structure (SMILES): O=C(CCCN1CCC(O)(c2ccc(Cl)cc2)CC1)c1ccc(F)cc1 [Haloperidol, haloperidol, reference compound]
- ED50 ([4]; Mus musculus, inhibition of amphetamine-induced agitation, stereotypy, body-hydration): 0.5 mg/kg
- % Inhibition (antiamphetamine activity) ([4]; dose 0.05 mg/Kg): 10%
- % Inhibition (antiamphetamine activity) ([4]; dose 0.1 mg/Kg): 20%
- % Inhibition (antiamphetamine activity) ([4]; dose 0.5 mg/Kg): 40%
- % Inhibition (antiamphetamine activity) ([4]; dose 0.75 mg/Kg): 50%
- % Inhibition (antiamphetamine activity) ([4]; dose 1.0 mg/Kg): 60%
- % Inhibition (antiamphetamine activity) ([4]; dose 1.3 mg/Kg): 70%
- % Inhibition (antiamphetamine activity) ([4]; dose 1.8 mg/Kg): 90%
